# Measured values published in patent US11246854B2, “Ozonides for treating or preventing virus infections” (THE JOHNS HOPKINS UNIVERSITY, priority 2017, dated 2022).
# “Also recorded” adds a separate entry of the source.
# How the values were obtained:
# [1] = tested on: CDK 1, 2, 4, pRb and E2F1 expression; assay: Immunoblot of CDKs, pRb and E2F1, HCMV-infected HFFs; type: cell-based, human
# Experimental: Cell lysates were quantified for total protein content using Pierce bicinchoninic acid (BCA) protein assay kit (Thermo-Fisher Scientific, Waltham, Mass.). Equivalent amounts of protein were mixed with an equal volume of sample buffer (125 mM Tris-HCl [pH 6.8], 4% SDS 20% glycerol, 5% β-mercaptoethanol) and boiled at 100° C. for 10 min. Denatured proteins were resolved in Tris-glycine polyacrylamide gels (10% to 12%) and transferred to polyvinylidene difluoride membranes (Bio-Rad Laboratories, Hercules, Calif.) by electroblotting. Membranes were incubated in blocking solution (5% nonfat dry milk/BSA and 0.1% Tween 20 in PBS [PBST]) for 1 h, washed three times with PBST, and incubated primary antibodies diluted in 5% milk or BSA (for pRb) at 4° C. overnight. The membranes were washed with PBST, followed by incubation with horseradish peroxidase (HRP)-conjugated secondary antibodies in 5% milk/BSA for 1 h at room temperature. After three washing steps with PBST, protein bands were visualized by chemiluminescence using SuperSignal West Pico reagent (Pierce Chemical, Rockford, Ill.). […]
# MCMV = assay: Inhibition of mouse CMV replication in BALB/c mice; type: in vivo
# Experimental: For infection experiments BALB/c mice, 4-6 week old, were purchased from Harlan Laboratories (Indianapolis, Ind.). The Animal Care and Use Committee of Johns Hopkins University approved the experimental procedures. After 2-3 days of adaptation to the housing environment, mice were randomly divided into several groups as follows: control, infected, infected+OZ418 1 mg/kg, 3 mg/kg or 10 mg/kg orally once daily, infected+AS 10 mg/kg orally twice daily, infected+GCV 10 mg/kg intraperitoneally twice daily. Mice were infected intraperitoneally with 10^6 PFU/mice (0.1 mL in […] saline) and all treatments were started at 24 hpi. Control mice received 0.1 ml of saline intraperitoneally. Control and infected mice received equivalent volumes of saline. Mice were sacrificed at day 14 after infection. Salivary glands, liver and spleen were harvested and stored at −80° C. Organs were homogenized in DMEM with 4% FBS at a final concentration of 100 mg/mL. Two million MEFs were seeded into 24-well plates. From each sample, 5% of the salivary gland homogenate or 10% of the liver homogenate was used for infection of MEFs in triplicates. Plaques were counted after three days.
# MTT cell viability assay = type: cell-based; conditions: human foreskin fibroblasts
# Experimental: Six ozonizes have been tested for inhibition of HCMV replication and toxicity in human foreskin fibroblasts (Table 1, FIG. 1). The pp28 luciferase-recombinant Towne was used to measure HCMV replication, and an MTT assay—for cell viability.
# Cells were seeded in 96-well plates, treated with various concentrations of ozonides and incubated at 37° C. for 3 days. Cell viability was determined by an MTT-based colorimetric assay (Sigma-Aldrich), and performed at the same time points as the antiviral assay.
# [2] = tested on: HCMV in high density and low density HFFs; assay: Effect of cell density on anti-HCMV activity (pp28 luciferase); type: cell-based, human cytomegalovirus
# Experimental: (§1) To determine the effect of cell density/cycling on the anti-HCMV activity of ozonides, HFFs were plated at 0.5×10^6, 1×10^6, 2×10^6 or 3×10^6 cells/96 well-plate 24 h prior to infection. Infection was carried out at multiplicity of infection of 1 PFU/cell (MOI=1). Following 90 minute adsorption, media containing virus was removed and replaced by DMEM with 4% FBS (Gibco) containing anti-viral compounds. Infected treated HFFs were collected at 72 hpi and pp28 activity was quantified by a Luciferase Assay Kit (Promega, Madison, Wis.) on GloMaxH-Multi+ Detection System (Promega) according to manufacturer's instructions.
# [3] = tested on: pp28-luciferase Towne CMV strain; assay: Drug combination with GCV (Bliss model); type: cell-based, human cytomegalovirus; conditions: FIGS. 4D and E
# Experimental: Drug combinations were performed as previously reported (33). Briefly, 2×10^6 HFFs were seeded in a 96-well plate and infected with the pp28-luciferase Towne CMV strain at MOI=1. First, a dose response curve was generated for each drug individually to determine its EC50. […] Luciferase activity of the combination and each drug individually was quantified at 72 hpi. The Bliss model was used to calculate the effect of each drug combination on pp28-luciferase activity. In this model, drug combination represents the product of two probabilistically independent events as described in the following equation (23):
# [formula] Where D is the drug concentration, m is the slope, and EC50 is the effective concentration resulting in 50% virus inhibition. The combined effect of two inhibitors (FU, fractional unaffected) is computed as the product of individual effects of the two inhibitors, FU1 and FU2. If the ratio of observed fold inhibition divided by the expected fold inhibition is greater than 1, the compounds are synergistic. If the ratio is less than 1, the combination is considered antagonistic, and if it equals to 1 the combination is additive.
# [4] = tested on: pp28 luciferase-recombinant Towne HCMV; assay: pp28-luciferase Towne HCMV replication assay in HFFs; type: cell-based, human cytomegalovirus
# Experimental: Six ozonizes have been tested for inhibition of HCMV replication and toxicity in human foreskin fibroblasts (Table 1, FIG. 1). The pp28 luciferase-recombinant Towne was used to measure HCMV replication, and an MTT assay—for cell viability. […] (FIG. 1).
# The pp28-luciferase Towne CMV strain was constructed as previously described (31). The recombinant virus expresses luciferase under the control of UL99 (pp28) late promoter 48-72 h post infection (hpi). […] Luciferase activity highly correlates with plaque reduction assay. The Towne CMV (ATCC VR-977) and TB40 strains (ATCC VR-1578) were used for plaque reduction, DNA replication, and cell cycle assays.
# HFFs passage 12-16 (ATCC, CRL-2088) were grown in Dulbecco's Modified Eagle Medium (DMEM) containing 10% fetal bovine serum (FBS) (Gibco, Carlsbad, Calif.) in a 5% CO2 incubator at 37° C. and used for infection with pp28-luciferase Towne CMV. HCT116 (Human Colorectal Carcinoma) (ATCC, CCL-247) cells were maintained in DMEM containing 10% fetal bovine serum.
# as §1
smiles,measurement,setting,value
O=C(O)COc1ccc([C@H]2CC[C@]3(CC2)OO[C@]2(O3)C3CC4CC(C3)CC2C4)cc1 [OZ418],"Expression level of CDKs, pRb and E2F1",[1],reduced
same,MCMV inhibition compared to AS,"MCMV; OZ418 once daily vs AS orally twice daily, FIG. 5 D-F",more effective in MCMV inhibition
same,MCMV replication in organs,"MCMV; salivary gland, liver and spleen, day 14 after infection, OZ418 1, 3 or 10 mg/kg orally once daily",effectively inhibits mouse CMV replication; also recorded: dose response was observed
same,CC50 at 3 days,MTT cell viability assay,128 ± 8 µM
same,HCMV inhibition in high-density HFFs,"[2]; high-density HFFs, FIG. 8A",effectively inhibited HCMV
same,Cell-density dependence of anti-HCMV activity,[2]; low density and high density human fibroblast cells,cell-density dependent
same,Activity against HCMV in low-density HFFs,"[2]; low-density HFFs, FIG. 8A",significantly reduced
same,Combination effect with GCV against HCMV,[3],synergistic activity with GCV
same,Selectivity index (SI),[4]; CC50/EC50,13.06 ± 0.48
same,EC50,[4]; Human betaherpesvirus 5,9.8 ± 0.25 µM
